ChEMBL document CHEMBL4257501, “Discovery of novel picolinamide-based derivatives as novel VEGFR-2 kinase inhibitors: synthesis, in vitro biological evaluation and molecular docking” (Medchemcomm, 2018)

Tests used:
[1] = tested on: A549; assay: Antiproliferative activity against VEGF-stimulated human A549 cells after 48 hrs by CCK8 assay; format: functional, cell-based; details: A549, 48 h
[2] = tested on: HepG2; assay: Antiproliferative activity against VEGF-stimulated human HepG2 cells after 48 hrs by CCK8 assay; format: functional, cell-based; details: HepG2, 48 h
[3] = Selectivity ratio of IC50 for VEGF-stimulated human HepG2 cells to IC50 for VEGF-stimulated human A549 cells; format: functional
[4] = biological target: Vascular endothelial growth factor receptor 2 (Homo sapiens, UniProt P35968); assay: biochemical; format: cell-based, Sf9
Vascular endothelial growth factor receptor 2, sequence (P35968 whole entry): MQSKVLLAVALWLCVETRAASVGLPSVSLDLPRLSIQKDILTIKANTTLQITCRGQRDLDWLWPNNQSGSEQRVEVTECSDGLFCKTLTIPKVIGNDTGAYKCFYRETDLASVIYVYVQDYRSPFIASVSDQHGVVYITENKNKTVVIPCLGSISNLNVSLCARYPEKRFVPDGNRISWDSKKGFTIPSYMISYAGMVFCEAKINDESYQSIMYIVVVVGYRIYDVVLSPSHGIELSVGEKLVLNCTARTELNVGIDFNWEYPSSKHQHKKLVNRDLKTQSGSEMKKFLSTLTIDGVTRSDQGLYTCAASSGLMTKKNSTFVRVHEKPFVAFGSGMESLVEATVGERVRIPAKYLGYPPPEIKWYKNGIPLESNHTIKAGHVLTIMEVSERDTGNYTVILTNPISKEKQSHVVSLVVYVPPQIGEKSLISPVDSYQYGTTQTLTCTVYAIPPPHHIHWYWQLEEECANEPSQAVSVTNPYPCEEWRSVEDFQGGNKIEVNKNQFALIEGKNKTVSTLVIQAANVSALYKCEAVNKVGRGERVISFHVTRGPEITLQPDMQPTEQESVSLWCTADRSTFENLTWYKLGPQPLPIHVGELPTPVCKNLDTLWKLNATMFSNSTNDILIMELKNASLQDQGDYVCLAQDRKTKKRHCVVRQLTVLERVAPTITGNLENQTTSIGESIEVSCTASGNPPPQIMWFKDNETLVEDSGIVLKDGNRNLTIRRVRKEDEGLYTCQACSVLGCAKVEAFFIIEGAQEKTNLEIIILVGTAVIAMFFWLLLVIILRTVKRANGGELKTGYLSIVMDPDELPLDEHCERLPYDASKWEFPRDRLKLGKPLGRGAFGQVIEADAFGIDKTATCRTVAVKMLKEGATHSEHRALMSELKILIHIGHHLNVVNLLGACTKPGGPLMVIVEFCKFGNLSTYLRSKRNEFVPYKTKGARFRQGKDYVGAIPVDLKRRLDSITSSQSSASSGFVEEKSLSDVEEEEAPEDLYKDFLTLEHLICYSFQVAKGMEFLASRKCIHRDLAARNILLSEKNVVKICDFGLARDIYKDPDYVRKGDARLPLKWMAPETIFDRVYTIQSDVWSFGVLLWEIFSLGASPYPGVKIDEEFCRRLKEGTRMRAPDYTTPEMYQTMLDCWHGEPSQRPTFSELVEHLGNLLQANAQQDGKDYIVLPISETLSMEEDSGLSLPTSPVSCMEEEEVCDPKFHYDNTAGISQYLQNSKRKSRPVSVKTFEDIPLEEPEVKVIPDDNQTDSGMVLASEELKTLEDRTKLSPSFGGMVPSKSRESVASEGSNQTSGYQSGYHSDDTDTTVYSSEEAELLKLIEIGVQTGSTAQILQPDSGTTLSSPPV
Description: Inhibition of recombinant human N-terminal GST-tagged VEGFR2 (789 to end residues) expressed in baculovirus infected Sf9 insect cells using Poly (4:1 Glu,Tyr) as substrate measured after 1 hr by ADP-Glo kinase assay

Compound	IC50 [1]	IC50 [2]	IC50 [4]	Ratio IC50 [3]
O=C(NCc1ccc(F)cc1)c1cc(Oc2ccc(/C=C/c3ccccn3)cc2)ccn1	> 100 µM	45.1 µM		<0.5
CC(C)NC(=O)c1cc(Oc2ccc(/C=C/c3ccncc3)cc2)ccn1	20.6 µM	33.7 µM		1.6
COc1ccc(NC(=O)c2cc(Oc3ccc(/C=C/c4ccncc4)cc3)ccn2)cc1	25.6 µM	> 100 µM		>3.9
COc1ccc(CNC(=O)c2cc(Oc3ccc(/C=C/c4ccccn4)cc3)ccn2)cc1	63.6 µM	26 µM		0.4
COc1ccc(CNC(=O)c2cc(Oc3ccc(/C=C/c4ccncc4)cc3)ccn2)cc1	19.3 µM	> 100 µM		>5.2
CC(C)NC(=O)c1cc(Oc2ccc(/C=C/c3ccccn3)cc2)ccn1	21.4 µM	> 100 µM		>4.7
O=C(Nc1ccc(Cl)cc1)c1cc(Oc2ccc(/C=C/c3ccncc3)cc2)ccn1	62.1 µM	56.2 µM		0.9
COc1ccc(NC(=O)c2cc(Oc3ccc(/C=C/c4ccccn4)cc3)ccn2)cc1	20 µM	30 µM		1.5
O=C(NC1CC1)c1cc(Oc2ccc(/C=C/c3ccncc3)cc2)ccn1	35.5 µM	77.5 µM		2.2
O=C(Nc1ccccc1)c1cc(Oc2ccc(/C=C/c3ccncc3)cc2)ccn1	79.7 µM	> 100 µM		>1.2
CNC(=O)c1cc(Oc2ccc(NC(=O)Nc3ccc(Cl)c(C(F)(F)F)c3)cc2)ccn1 [SORAFENIB]	19.3 µM	29 µM		

Second part, led by results:

IC50 [1]	IC50 [2]	IC50 [4]	Compound	Ratio IC50 [3]
18.2 µM	37.2 µM		O=C(NCc1ccc(F)cc1)c1cc(Oc2ccc(/C=C/c3ccncc3)cc2)ccn1	2
18.8 µM	27.9 µM		O=C(NCc1ccccc1)c1cc(Oc2ccc(/C=C/c3ccccn3)cc2)ccn1	1.5
17.3 µM	31 µM		O=C(NC1CC1)c1cc(Oc2ccc(/C=C/c3ccccn3)cc2)ccn1	1.8
16.8 µM	22.4 µM	1.22 µM	O=C(NC1CCCCC1)c1cc(Oc2ccc(/C=C/c3ccncc3)cc2)ccn1	1.3
13.2 µM	18.2 µM	0.29 µM	CNC(=O)c1cc(Oc2ccc(/C=C/c3ccncc3)cc2)ccn1	1.4
17 µM	28.9 µM		O=C(NCc1ccccc1)c1cc(Oc2ccc(/C=C/c3ccncc3)cc2)ccn1	1.7
16.2 µM	31.3 µM		O=C(Nc1ccc(Cl)cc1)c1cc(Oc2ccc(/C=C/c3ccccn3)cc2)ccn1	1.9
18.6 µM	41.6 µM		O=C(c1cc(Oc2ccc(/C=C/c3ccncc3)cc2)ccn1)N1CCCC1	2.2
15.6 µM	27 µM		O=C(c1cc(Oc2ccc(/C=C/c3ccccn3)cc2)ccn1)N1CCCC1	1.7
17.4 µM	21.6 µM	0.87 µM	CNC(=O)c1cc(Oc2ccc(/C=C/c3ccccn3)cc2)ccn1	1.2
12.5 µM	20.6 µM	0.53 µM	O=C(NC1CCCCC1)c1cc(Oc2ccc(/C=C/c3ccccn3)cc2)ccn1	1.6
19.1 µM	30.2 µM		O=C(Nc1ccccc1)c1cc(Oc2ccc(/C=C/c3ccccn3)cc2)ccn1	1.6
